Data from patent US20050019746A1, “Apoptosis-related kinase/GPCRs” (EiRx Therapeutics Limited, priority 2003, published 2005).

What follows are substances tested on target gene mRNA in DU145 cells (assay: Knockdown by RNAi, QPCR, DU145 cells). Conditions: DU145, 24 hrs post transfection, relative to missense control.
Assay type: cell-based, human
Procedure: These siRNA oligos are initially tested for efficacy in a cell line in which the gene is expressed for example in the Hela, U251, TF1 or DU145 cell lines. Cells are plated at a density of between 7.5-10×10^4 in each well of a 6 well plate and incubated at 37° C. overnight in DMEM culture medium (1× Dulbeccos modified Eagles medium (Sigma D2554), 0.004% folic acid, 4 mM L-glutamine, 0.37% sodium bicarbonate, 0.1 mM sodium pyruvate) containing 10% fetal calf serum (FCS). 2 μg of duplex siRNA is transfected into cells using DMRIE-C reagent (Invitrogen 10459-014) according to methods described in U.S. Patent Application No. 60/498,488. In brief, to prepare 1 ml of a transfection solution 2 μg of siRNA duplex in added to 1 ml of Optimem (Gibco), to which 8 μl of DMRIE C reagent is added. Transfection mix is added directly to the cells and incubated for 4 hrs at 37° C. Post this 4 hr incubation, transfection solution is removed and cells are refed with fresh culture medium and incubated for a further 24 hrs. An additional medium change is required at this point to minimise toxicity of the transfection procedure. Cells are harvested at 24 or 48 hrs post transfection for analysis of mRNA expression. […]
After DMRIE transfections with siRNA Oligos against the apoptosis associated genes identified herein, or controls, cells are harvested at 24 or 48 hours post transfection as stated previously. […] RNA is quantified by spectrophotometric analysis and 1 μg is reverse transcribed into cDNA using SuperScriptII RNAseH-Reverse Transcriptase (Invitrogen 18064-014). […] QPCR primers are designed to amplify a PCR product of approximately 100 to 300 nucleotides in length from the CDS, following the guidelines outlined in the Quantitect SYBR Green PCR handbook from Qiagen.
Two template standards are used for quantitative PCR assessment of mRNA levels: • 1. A control RPS13 i.e. Ribosomal Protein Sub unit 13 (NM_001017) amplified PCR product diluted to [1000,100,10,1 and 0.1 fg] respectively, used to quantify the level of transcript; • 2. […]
In the case of “siRNA MAK: sense GAAGCCAAGCAUGGGUGUUtt, antisense AACACCCAUGCUUGGCUUCtt (sense GAAGCCAAGCAUGGGUGUUTT; antisense AACACCCAUGCUUGGCUUCTT; chemistry not given here)”, the “% Knockdown by RNAi, DU145” value is reported as 19%.
In the case of “siRNA GRAF: siRNA duplex, sense GCGGAAGUUUGCAGAUUCCtt, antisense GGAAUCUGCAAACUUCCGCtt; same in Tables 9 and 11 (sense GCGGAAGUUUGCAGAUUCCTT; antisense GGAAUCUGCAAACUUCCGCTT; chemistry not given here)”, the “% Knockdown by RNAi, DU145” value is reported as 84.4%.
“siRNA FLT4: sense GUACGGCAACCUCUCCAACtt, antisense GUUGGAGAGGUUGCCGUACtt (sense GUACGGCAACCUCUCCAACTT; antisense GUUGGAGAGGUUGCCGUACTT; chemistry not given here)” was tested, and the “% Knockdown by RNAi, DU145” value was 85%.

What follows are substances tested on target gene mRNA in PC3 cells (assay: Validation of siRNA efficacy by QPCR in PC3 cells). Conditions: PC3, siRNA 50 nM, RNAiFect, 24 hours post transfection, relative to non-silencing control, normalised to GAPDH.
Assay type: cell-based, human
Procedure: To evaluate the ability of each siRNA oligonucleotides to knock down its intended target, each siRNA was validated in a cell line known to express the target, in this example the genes were tested PC3 cells, which were shown by expression profiling to express all target genes. The efficacy of knockdown was measured using QPCR. Cells are plated at a density of 2×10^4 cells in each well of a 24 well plate and incubated at 37° C. overnight. The siRNA is transfected into cells using RNAiFect reagent (Qiagen) with siRNA at a concentration of 50 nM according to manufacturer's instructions. Additional wells of cells are transfected with 50 nM of a non-silencing control (Qiagen). […] Transfected cells are harvested at 24 hours post transfection, and RNA extracted using RNeasy Miniprep columns with an on-column DNase digestion step. The RNA is eluted in 30 μl of RNase-free H2O. cDNA is synthesised from 12 μl of this RNA using an anchored oligo(dT) primer (Sigma) and Transcriptor reverse transcriptase (Roche) at 55° C. in a total volume of 20 μl following the manufacturer's instructions. The resulting cDNA is diluted to a total of 200 μl with H2O and 10 μl used in each QPCR reaction. The levels of transcript are compared by QPCR, relative to the non-silencing control. QPCR is performed using primers, conditions and methodology identical to those used for expression profiling, see Table 8. All reactions were performed in duplicate and the average Ct values calculated. For each sample, the Ct of each target gene in normalised to GAPDH. Relative expression between cells transfected with target or non-silencing siRNA, normalised to GAPDH expression, is determined by the comparative Ct method.
In the case of “siRNA GRAF: siRNA duplex, sense GCGGAAGUUUGCAGAUUCCtt, antisense GGAAUCUGCAAACUUCCGCtt; same in Tables 9 and 11 (sense GCGGAAGUUUGCAGAUUCCTT; antisense GGAAUCUGCAAACUUCCGCTT; chemistry not given here)”, the “Decrease in expression of target gene” value is reported as 64.5%.
In the case of “siRNA ROCK: siRNA duplex, sense UACAUGCCUGGUGGAGAUCtt, antisense GAUCUCCACCAGGCAUGUAtt; same in Tables 9 and 11 (sense UACAUGCCUGGUGGAGAUCTT; antisense GAUCUCCACCAGGCAUGUATT; chemistry not given here)”, the “Decrease in expression of target gene” value is reported as 65.0%.
“siRNA NTKL: siRNA duplex, sense UGUGGAGCUGAUGAAGCACtt, antisense GUGCUUCAUCAGCUCCACAtt; same in Tables 9 and 11 (sense UGUGGAGCUGAUGAAGCACTT; antisense GUGCUUCAUCAGCUCCACATT; chemistry not given here)” was tested, and the “Decrease in expression of target gene” value was 82.9%.
For “siRNA EKI: siRNA duplex, sense GCACUGGAUCCAAAGCAUGtt, antisense CAUGCUUUGGAUCCAGUGCtt; same in Tables 9 and 11 (sense GCACUGGAUCCAAAGCAUGTT; antisense CAUGCUUUGGAUCCAGUGCTT; chemistry not given here)”, the “Decrease in expression of target gene” value was 76.0%.
With “siRNA Survivin: positive control siRNA, sense GAACUGGCCCUUCUUGGAGtt, antisense CUCCAAGAAGGGCCAGUUCtt (sense GAACUGGCCCUUCUUGGAGTT; antisense CUCCAAGAAGGGCCAGUUCTT; chemistry not given here) [reference compound]” the “Decrease in expression of target gene” value was 82.2%.
